Among the data in US20250382305A1 (PTC THERAPEUTICS, INC., priority 2022, published 2025) are IC50 values, retold here.

The subject of one experiment is ATXN3 pre-mRNA. The experiment in a line: RT-qPCR Assay to Quantify Exon 4 Skipping in ATXN3 pre-mRNA in Cells. The experiment is classed as cell-based. As to conditions: percent exon 4 skipping in ATXN3 pre-mRNA, RT-qPCR of cell lysates; average IC50. The gist of the method:
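IC50 derives from a dose-response fit of percent exon 4 skipping, quantified by RT-qPCR on crude lysates. Compounds tested as 7-point 3.16-fold dilutions in duplicate; cells (10,000/well) were exposed for 24 h at 37 °C before lysis.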

Experiment [1] has as its system Total ATXN3 (tATXN3) protein. The experiment in a line: Endogenous Total ATXN3 (tATXN3) Protein Assay (MSD immunoassay of cell lysates). The experiment is classed as cell-based. As to conditions: average IC50, total ATXN3 protein in cell lysate after 48 h with compound (Table 1). The gist of the method:
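By electrochemiluminescent MSD sandwich immunoassay (mouse monoclonal capture, rabbit monoclonal and SULFO-TAG anti-rabbit detection), endogenous ATXN3 was quantified in lysates of cells treated 48 h at 37° C at 10,000 cells/well. Treatment used a 7-point 3.16-fold duplicate dilution series, with average IC50 grouped into star categories.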

Regarding “6-((3R,4S)-3-aminotetrahydro-2H-pyran-4-yl)-2-chloro-N-(furan-2-ylmethyl)-7-((trimethylsilyl)ethynyl)thieno[3,2-d]pyrimidin-4-amine and 6-((3S,4R)-3-aminotetrahydro-2H-pyran-4-yl)-2-chloro-N-(furan-2-ylmethyl)-7-((trimethylsilyl)ethynyl)thieno[3,2-d]pyrimidin-4-amine [Compound 317]”, the IC50 (with ATXN3 pre-mRNA; in experiment [1]) was 30 to 300 nM each time.
Turning to “6-((3R,4S)-3-aminotetrahydro-2H-pyran-4-yl)-2-chloro-N-(furan-2-ylmethyl)-7-iodothieno[3,2-d]pyrimidin-4-amine and 6-((3S,4R)-3-aminotetrahydro-2H-pyran-4-yl)-2-chloro-N-(furan-2-ylmethyl)-7-iodothieno[3,2-d]pyrimidin-4-amine [Compound 245]”, the IC50 (in the experiment on ATXN3 pre-mRNA; in experiment [1]) was not above 30 nM throughout.
As for “6-((3R,4S)-3-aminotetrahydro-2H-pyran-4-yl)-2-chloro-N-(furan-2-ylmethyl)-7-vinylthieno[3,2-d]pyrimidin-4-amine and 6-((3S,4R)-3-aminotetrahydro-2H-pyran-4-yl)-2-chloro-N-(furan-2-ylmethyl)-7-vinylthieno[3,2-d]pyrimidin-4-amine [Compound 390]”, the IC50 was 30 to 300 nM with ATXN3 pre-mRNA and 300 to 1000 nM in experiment [1].
As for “6-((3R,4S)-3-aminotetrahydro-2H-pyran-4-yl)-7-bromo-2-chloro-N-(furan-2-ylmethyl)thieno[3,2-d]pyrimidin-4-amine and 6-((3S,4R)-3-aminotetrahydro-2H-pyran-4-yl)-7-bromo-2-chloro-N-(furan-2-ylmethyl)thieno[3,2-d]pyrimidin-4-amine [Compound 339]”, the IC50 (with ATXN3 pre-mRNA; in experiment [1]) was 30 to 300 nM in each case.
For the compound “6-((3R,4S)-3-aminotetrahydro-2H-pyran-4-yl)-7-bromo-2-chloro-N-(thiophen-2-ylmethyl)thieno[3,2-d]pyrimidin-4-amine and 6-((3S,4R)-3-aminotetrahydro-2H-pyran-4-yl)-7-bromo-2-chloro-N-(thiophen-2-ylmethyl)thieno[3,2-d]pyrimidin-4-amine [Compound 347]”, the IC50 (with ATXN3 pre-mRNA; in experiment [1]) was 30 to 300 nM in each case.
For the compound `NC1CCCOC1c1sc2c(NCc3ccccc3F)cc(Cl)nc2c1Cl` (mixture of isomers) [Compound 24, 2-((2R,3R)-3-aminotetrahydro-2H-pyran-2-yl)-3,5-dichloro-N-(2-fluorobenzyl)thieno[3,2-b]pyridin-7-amine and 2-((2S,3S)-3-aminotetrahydro-2H-pyran-2-yl)-3,5-dichloro-N-(2-fluorobenzyl)thieno[3,2-b]pyridin-7-amine], the IC50 (with ATXN3 pre-mRNA; in experiment [1]) was 30 to 300 nM each time.
`N[C@@H]1CCCO[C@H]1c1sc2c(NCc3ccccc3F)cc(Cl)nc2c1Br.N[C@H]1CCCO[C@@H]1c1sc2c(NCc3ccccc3F)cc(Cl)nc2c1Br` (mixture of isomers) [Compound 29, 2-((2R,3R)-3-aminotetrahydro-2H-pyran-2-yl)-3-bromo-5-chloro-N-(2-fluorobenzyl)thieno[3,2-b]pyridin-7-amine and 2-((2S,3S)-3-aminotetrahydro-2H-pyran-2-yl)-3-bromo-5-chloro-N-(2-fluorobenzyl)thieno[3,2-b]pyridin-7-amine]: the IC50 (in the experiment on ATXN3 pre-mRNA; in experiment [1]) was 30 to 300 nM each time.
As for `N[C@@H]1CC(F)(F)CC[C@@H]1c1sc2c(NCc3cccs3)cc(Cl)nc2c1Br.N[C@H]1CC(F)(F)CC[C@H]1c1sc2c(NCc3cccs3)cc(Cl)nc2c1Br` (mixture of isomers) [Compound 30, 2-((1R,2S)-2-amino-4,4-difluorocyclohexyl)-3-bromo-5-chloro-N-(thiophen-2-ylmethyl)thieno[3,2-b]pyridin-7-amine and 2-((1S,2R)-2-amino-4,4-difluorocyclohexyl)-3-bromo-5-chloro-N-(thiophen-2-ylmethyl)thieno[3,2-b]pyridin-7-amine], the half-inhibitory concentration (IC50) (with ATXN3 pre-mRNA; in experiment [1]) was more than 1000 nM each time.
Turning to `N[C@@H]1CCCN[C@H]1c1sc2c(NCc3cccs3)cc(Cl)nc2c1Br.N[C@H]1CCCN[C@@H]1c1sc2c(NCc3cccs3)cc(Cl)nc2c1Br` (mixture of isomers) [Compound 47, 2-((2R,3R)-3-aminopiperidin-2-yl)-3-bromo-5-chloro-N-(thiophen-2-ylmethyl)thieno[3,2-b]pyridin-7-amine and 2-((2S,3S)-3-aminopiperidin-2-yl)-3-bromo-5-chloro-N-(thiophen-2-ylmethyl)thieno[3,2-b]pyridin-7-amine], the IC50 in the experiment on ATXN3 pre-mRNA is 300 to 1000 nM; in experiment [1] it was more than 1000 nM.
`N[C@H]1CCCN(c2ccccc2)[C@@H]1c1sc2c(NCc3cccs3)cc(Cl)nc2c1Br` (mixture of isomers) [Compound 124, 2-((2R,3R)-3-amino-1-phenylpiperidin-2-yl)-3-bromo-5-chloro-N-(thiophen-2-ylmethyl)thieno[3,2-b]pyridin-7-amine and 2-((2S,3S)-3-amino-1-phenylpiperidin-2-yl)-3-bromo-5-chloro-N-(thiophen-2-ylmethyl)thieno[3,2-b]pyridin-7-amine]: the IC50 (in the experiment with ATXN3 pre-mRNA; in experiment [1]) was more than 1000 nM each time.
Turning to `N[C@@H]1[C@@H](O)C=CC[C@H]1c1sc2c(NCc3cccs3)cc(Cl)nc2c1Cl.N[C@H]1[C@H](O)C=CC[C@@H]1c1sc2c(NCc3cccs3)cc(Cl)nc2c1Cl` (mixture of isomers) [Compound 127, (1R,5S,6R)-6-amino-5-(3,5-dichloro-7-((thiophen-2-ylmethyl)amino)thieno[3,2-b]pyridin-2-yl)cyclohex-2-en-1-ol and (1S,5R,6S)-6-amino-5-(3,5-dichloro-7-((thiophen-2-ylmethyl)amino)thieno[3,2-b]pyridin-2-yl)cyclohex-2-en-1-ol], the IC50 (with ATXN3 pre-mRNA; in experiment [1]) was 30 to 300 nM each time.
As for `N[C@@H]1CCNCC[C@H]1c1sc2c(NCc3cccs3)cc(Cl)nc2c1Br.N[C@H]1CCNCC[C@@H]1c1sc2c(NCc3cccs3)cc(Cl)nc2c1Br` (mixture of isomers) [Compound 147, 2-((4R,5R)-5-aminoazepan-4-yl)-3-bromo-5-chloro-N-(thiophen-2-ylmethyl)thieno[3,2-b]pyridin-7-amine and 2-((4S,5S)-5-aminoazepan-4-yl)-3-bromo-5-chloro-N-(thiophen-2-ylmethyl)thieno[3,2-b]pyridin-7-amine], the IC50 (with ATXN3 pre-mRNA; in experiment [1]) was more than 1000 nM in each case.
For `N[C@@H]1CC=CC[C@H]1c1sc2c(NCc3cccs3)cc(Cl)nc2c1C#CCCCO.N[C@H]1CC=CC[C@@H]1c1sc2c(NCc3cccs3)cc(Cl)nc2c1C#CCCCO` (mixture of isomers) [Compound 175, 5-(2-((1R,6R)-6-aminocyclohex-3-en-1-yl)-5-chloro-7-((thiophen-2-ylmethyl)amino)thieno[3,2-b]pyridin-3-yl)pent-4-yn-1-ol and 5-(2-((1S,6S)-6-aminocyclohex-3-en-1-yl)-5-chloro-7-((thiophen-2-ylmethyl)amino)thieno[3,2-b]pyridin-3-yl)pent-4-yn-1-ol], the IC50 (in the experiment on ATXN3 pre-mRNA; in experiment [1]) was not above 30 nM throughout.
As to `CC#Cc1c(C2[C@@H](N)CCCC2(F)F)sc2c(NCc3cccs3)cc(Cl)nc12.CC#Cc1c(C2[C@H](N)CCCC2(F)F)sc2c(NCc3cccs3)cc(Cl)nc12` (mixture of isomers) [Compound 208, 2-((6R)-6-amino-2,2-difluorocyclohexyl)-5-chloro-3-(prop-1-yn-1-yl)-N-(thiophen-2-ylmethyl)thieno[3,2-b]pyridin-7-amine and 2-((6S)-6-amino-2,2-difluorocyclohexyl)-5-chloro-3-(prop-1-yn-1-yl)-N-(thiophen-2-ylmethyl)thieno[3,2-b]pyridin-7-amine], the concentration for half-maximal inhibition (IC50) (with ATXN3 pre-mRNA; in experiment [1]) was not above 30 nM throughout.
As to `N[C@@H]1CC=CC[C@H]1c1sc2c(NCc3cccs3)cc(Cl)nc2c1I.N[C@H]1CC=CC[C@@H]1c1sc2c(NCc3cccs3)cc(Cl)nc2c1I` (mixture of isomers) [Compound 209, 2-((1R,6R)-6-aminocyclohex-3-en-1-yl)-5-chloro-3-iodo-N-(thiophen-2-ylmethyl)thieno[3,2-b]pyridin-7-amine and 2-((1S,6S)-6-aminocyclohex-3-en-1-yl)-5-chloro-3-iodo-N-(thiophen-2-ylmethyl)thieno[3,2-b]pyridin-7-amine], the IC50 (in the experiment on ATXN3 pre-mRNA; in experiment [1]) was not above 30 nM throughout.
In the case of `N[C@@H]1CCCO[C@H]1c1sc2c(NCc3cccs3)cc(Cl)nc2c1C#CCCO.N[C@H]1CCCO[C@@H]1c1sc2c(NCc3cccs3)cc(Cl)nc2c1C#CCCO` (mixture of isomers) [Compound 213, 4-(2-((2R,3R)-3-aminotetrahydro-2H-pyran-2-yl)-5-chloro-7-((thiophen-2-ylmethyl)amino)thieno[3,2-b]pyridin-3-yl)but-3-yn-1-ol and 4-(2-((2S,3S)-3-aminotetrahydro-2H-pyran-2-yl)-5-chloro-7-((thiophen-2-ylmethyl)amino)thieno[3,2-b]pyridin-3-yl)but-3-yn-1-ol], the IC50 (with ATXN3 pre-mRNA; in experiment [1]) was not above 30 nM each time.
With `N[C@@H]1CC=CC[C@H]1c1sc2c(NCc3cccs3)nc(Cl)nc2c1Cl.N[C@H]1CC=CC[C@@H]1c1sc2c(NCc3cccs3)nc(Cl)nc2c1Cl` (mixture of isomers) [Compound 240, 6-((1R,6R)-6-aminocyclohex-3-en-1-yl)-2,7-dichloro-N-(thiophen-2-ylmethyl)thieno[3,2-d]pyrimidin-4-amine and 6-((1S,6S)-6-aminocyclohex-3-en-1-yl)-2,7-dichloro-N-(thiophen-2-ylmethyl)thieno[3,2-d]pyrimidin-4-amine], the IC50 (in the experiment on ATXN3 pre-mRNA; in experiment [1]) was not above 30 nM throughout.
